Measured values taken from PubChem BioAssay (NCI).
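Cells were grown in 96-well plates and exposed to each compound for 48 hours at five concentrations; endpoints were interpolated linearly between bracketing concentrations, or set to the highest concentration if not reached. TGI is the concentration that stops growth completely.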

Assays:
Assay in all cases: NCI anticancer screen, dose series, 48 h
UACC-62 melanoma = system: UACC-62 melanoma
HL-60(TB) leukemia = system: HL-60(TB) leukemia
KM12 colon = system: KM12 colon
MOLT-4 leukemia = system: MOLT-4 leukemia
NCI-H226 lung = system: NCI-H226 lung
U251 CNS = system: U251 CNS
SK-MEL-5 melanoma = system: SK-MEL-5 melanoma
SF-268 CNS = system: SF-268 CNS
NCI-H460 lung = system: NCI-H460 lung
A549 NSCLC = system: A549 NSCLC
SK-MEL-28 melanoma = system: SK-MEL-28 melanoma
SK-OV-3 ovarian = system: SK-OV-3 ovarian
OVCAR-4 ovarian = system: OVCAR-4 ovarian
NCI/ADR-RES ovarian = system: NCI/ADR-RES ovarian
PC-3 prostate = system: PC-3 prostate
MDA-N = system: MDA-N
UO-31 renal = system: UO-31 renal
SR leukemia = system: SR leukemia
BT-549 breast = system: BT-549 breast

Row | Structure (SMILES) | TGI (UACC-62 melanoma) [µM] | TGI (HL-60(TB) leukemia) [µM] | TGI (KM12 colon) [µM] | TGI (MOLT-4 leukemia) [µM] | TGI (NCI-H226 lung) [µM] | TGI (U251 CNS) [µM] | TGI (SK-MEL-5 melanoma) [µM] | TGI (SF-268 CNS) [µM] | TGI (NCI-H460 lung) [µM] | TGI (A549 NSCLC) [µM] | TGI (SK-MEL-28 melanoma) [µM] | TGI (SK-OV-3 ovarian) [µM] | TGI (OVCAR-4 ovarian) [µM] | TGI (NCI/ADR-RES ovarian) [µM] | TGI (PC-3 prostate) [µM] | TGI (MDA-N) [µM] | TGI (UO-31 renal) [µM] | TGI (SR leukemia) [µM] | TGI (BT-549 breast) [µM]
1 | O=C(Cc1nc2sc3c(c2c(=O)[nH]1)CCCC3)Nc1ccccc1 | > 100 | > 100 | > 100 | > 100 | > 100 | > 100 | > 100 | > 100 | > 100 | > 100 | > 100 | > 100 | > 100 |  |  |  |  |  | 
2 | CC(C)(C)c1cc2c(c(C(C)(C)C)c1O)CC(=O)O2 | 77.5 | 86.8 | 64.6 | > 100 | 74.7 | > 100 | 32.2 | > 100 | > 100 | > 100 | > 100 | > 100 | > 100 | 54.7 | 76.1 | > 100 | 66.6 |  | 
3 | O=C(CC(O)(C(F)(F)F)C(F)(F)Cl)CC(O)(C(F)(F)F)C(F)(F)Cl (stereo not drawn) | > 10 | > 10 | > 10 | > 10 | 6.92 | 8.39 | 4.35 | > 10 | 8.85 | > 10 | > 10 | 4.69 | > 10 | 9.5 | 7.37 | > 10 | > 10 | > 10 | 
4 | CCO/S(=N/S(=O)(=O)c1ccccc1)c1ccccc1[N+](=O)[O-] (stereo not drawn) | > 100 |  | > 100 | > 100 | > 100 | > 100 | > 100 | > 100 | > 100 | > 100 | > 100 | > 100 | > 100 |  |  |  | > 100 | > 100 | 
5 | N#COc1ccc(Oc2ccccc2)cc1 | > 100 | 75.8 | > 100 | > 100 | > 100 | > 100 | > 100 | > 100 | > 100 | > 100 | > 100 | > 100 | > 100 |  |  |  | > 100 | 50 | 
6 | CCN(CC)Cc1ccccc1CC(=O)N1c2ccccc2C(=O)Nc2cccnc21 | > 100 | > 100 | > 100 | > 100 | > 100 | > 100 | > 100 | > 100 | > 100 | > 100 | > 100 | > 100 | > 100 | > 100 | > 100 | > 100 |  | 72.2 | 
7 | O=c1[nH]c2cc([N+](=O)[O-])ccc2nc1/C(=N/Nc1ccccc1)C(O)c1ccco1 (stereo not drawn) | > 100 | > 100 | > 100 | > 100 | 76.1 | > 100 | > 100 | > 100 | > 100 | > 100 |  |  | > 100 |  |  |  | > 100 | > 100 | 
8 | CN(C)C1(N(C)C)Oc2c(c(=O)n(C)c(=O)n2C)C(c2ccc(C(F)(F)F)cc2)C1(F)F (stereo not drawn) | > 100 |  | > 100 |  | > 100 | > 100 | > 100 | > 100 | > 100 | > 100 | > 100 | > 100 | > 100 | > 100 | > 100 |  | > 100 |  | > 100
9 | O=C1CCC(=O)N1CNc1ccc2c(c1)S(=O)(=O)c1ccccc1O2 | > 100 | > 100 | > 100 | > 100 | > 100 | > 100 | > 100 | > 100 |  | > 100 | > 100 |  | > 100 | > 100 | > 100 | > 100 | > 100 |  | > 100
10 | O=C(c1ccco1)N(C(=S)N1CCN(c2ccccc2)CC1)C1CCCCC1 | > 100 | > 100 | > 100 | > 100 |  | > 100 | > 100 | > 100 | > 100 | > 100 |  | > 100 | > 100 |  |  |  | > 100 | > 100 | 
11 | NC(=O)CN1CC(C2=C(O)CN(CC(N)=O)C2=O)=CC1=O | > 100 | > 100 | > 100 | > 100 | > 100 | > 100 | > 100 | > 100 | > 100 | > 100 | > 100 | > 100 | > 100 | > 100 | > 100 |  | > 100 | > 100 | > 100
12 | COc1cc2c(oc(=O)c3c4occc4cc(OC)c23)c2cccc(OCc3ccccc3)c12 | > 100 | > 100 | > 100 | > 100 | > 100 | > 100 | > 100 | > 100 | > 100 | > 100 | > 100 | > 100 | > 100 |  |  |  | > 100 | > 100 | 
13 | S=C=Nc1ccc(CSc2nc3ccccc3[nH]2)cc1 | 29.4 | > 100 | 31.7 | 55.1 |  | 30.9 | 29.4 | 37.8 | 40.4 | 31 | 37.3 | 40.3 | 31.6 | 33 | 32 | 40.7 | 34.8 | 65.4 | 
14 | CSc1nc(Nc2ccccc2Cl)c2c(N)nn(C)c2n1 | > 100 |  | > 100 | > 100 | > 100 | > 100 | > 100 | > 100 | > 100 | > 100 | > 100 | > 100 | > 100 | > 100 | > 100 | > 100 | > 100 |  | > 100
